Results as given in patent EP4680608B1, “2,6-DIHYDRO-7H-PYRAZOLO[3,4-C]PYRIDIN-7-ONE DERIVATIVES AS ANTI-MALARIAL AGENTS” (MMV Medicines for Malaria Venture, priority 2024, dated 2025).

What was measured:
P. falciparum 3D7 = test: Asexual blood-stage growth inhibition assay, SYBR green method; assay type: cell-based; conditions: Plasmodium falciparum, 3D7, 72 h, ring-stage 3D7 parasites
Method: Asexual blood-stage EC50 assays. […] Compound stocks prepared in DMSO were plated using a Tecan D300e automated low volume liquid handler. Ring-stage 3D7 or Dd2 parasites (60 µL cells) (2% hematocrit, 0.5% parasitemia, final DMSO concentration 0.5%) were added to plates, incubated with compounds over a range of concentrations in technical triplicate for 72 h at 37 °C, 5% CO2, and then frozen (-80°C) overnight before analysis. […] Data were analyzed by non-linear regression using GraphPad Prism to determine the EC50 by fitting to the built-in equation (log(inhibitor) vs response-variable slope with four parameters).

P. vivax DHODH = P. vivax DHODH (Plasmodium vivax, UniProt A5K1N1); test: DHODH inhibition, steady-state DCIP assay (PvDHODH); assay type: biochemical; conditions: recombinant PvDHODH, DCIP method, 25°C, 5 nM enzyme; read-out: P. vivax DHODH (IC50)
From the text: (§1) DOI: 10.1074/jbc.M206854200).
(§2) Proteins were expressed and purified on a Pharmacia FPLC using HisTrap HP column chromatography followed by gel filtration chromatography on a Pharmacia HiLoad 16/600 Superdex 200 column, and protein concentration determined based on OD280 using the previously described extinction coefficients (Kokkonda et al., 2020, J Med Chem, 63 (9), 4929-4956. DOI: 10.1021/acs.jmedchem.0c00311). Purified proteins were >95% pure based on SDS-PAGE analysis.
(§3) DHODH activity was monitored in a steady-state assay using the 2,6-dichloroindophenol (DCIP) method at 25°C in assay buffer (100 mM HEPES, pH 8.0, 150 mM NaCl, 1% glycerol, 0.1% Triton X-100 reduced) plus substrates 20 µM CoQD, 200 µM DHO, 120 µM DCIP, and 5 nM enzyme as previously described (Malmquist et al, 2008, Biochemistry, 47 (8), 2466-2475. DOI: 10.1021/bi702218c).
(§4) Compound stocks were prepared at 10-100 mM in DMSO, and diluted working stocks in DMSO were generated as appropriate. Compounds were plated from DMSO stocks in 96 well plate format using a Tecan D300e digital dispenser to generate a 3-fold dilution series over a concentration range of 0.0003 -100 µM (or 30 µM), yielding a final DMSO concentration of 1% in the assay. The top concentration used in the dose response was determined by the initial DMSO stock concentrations:100 µM for 100 mM stocks, and 30 µM for 10 mM stocks. Triplicate rate data were collected at each inhibitor concentration. Inhibitory IC50 values were determined by fitting the data to log (inhibitor) vs response equation Y = bottom + (top - bottom)/(1 + 10A ((X - Log IC50))) in GraphPad Prism. DSM265 ^2 was plated as an assay control in all studies.

Human DHODH = target: T1, Human DHODH (Homo sapiens, UniProt Q02127); test: DHODH inhibition, steady-state DCIP assay (human DHODH); assay type: biochemical; conditions: recombinant HsDHODH, DCIP method, 25°C, 5 nM enzyme; top concentration 100 µM or 30 µM
T1 construct: C-terminal His6-tagged HsDHODH residues 29-395 in pET-22b (start ^29MATGDE); His6 (C); made in house; host or cells: E. coli BL21-DE3 (phage-resistant)
From the text: as §1, §2, §3, §4

P. falciparum DHODH = target: T2, P. falciparum DHODH (Plasmodium falciparum, UniProt Q08210); test: DHODH inhibition, steady-state DCIP assay (PfDHODH); assay type: biochemical; conditions: recombinant PfDHODH, DCIP method, 25°C, 5 nM enzyme
T2 construct: His6 (N); made in house; host or cells: E. coli BL21-DE3 (phage-resistant)
Method: as §4, with “Prism.” for “Prism. DSM265 ^2 was plated as an assay control in all studies.”

T1 sequence (Q02127 29-395): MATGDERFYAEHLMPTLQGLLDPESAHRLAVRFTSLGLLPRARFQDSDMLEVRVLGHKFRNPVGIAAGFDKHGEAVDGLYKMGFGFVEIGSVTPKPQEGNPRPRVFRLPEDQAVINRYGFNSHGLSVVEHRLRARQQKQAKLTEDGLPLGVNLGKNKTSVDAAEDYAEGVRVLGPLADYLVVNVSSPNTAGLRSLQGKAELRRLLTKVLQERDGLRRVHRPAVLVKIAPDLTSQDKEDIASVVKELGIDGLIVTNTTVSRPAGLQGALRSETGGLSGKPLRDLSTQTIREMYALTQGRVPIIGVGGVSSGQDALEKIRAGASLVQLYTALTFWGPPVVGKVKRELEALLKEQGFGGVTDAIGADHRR
T2 sequence (Q08210 158-569): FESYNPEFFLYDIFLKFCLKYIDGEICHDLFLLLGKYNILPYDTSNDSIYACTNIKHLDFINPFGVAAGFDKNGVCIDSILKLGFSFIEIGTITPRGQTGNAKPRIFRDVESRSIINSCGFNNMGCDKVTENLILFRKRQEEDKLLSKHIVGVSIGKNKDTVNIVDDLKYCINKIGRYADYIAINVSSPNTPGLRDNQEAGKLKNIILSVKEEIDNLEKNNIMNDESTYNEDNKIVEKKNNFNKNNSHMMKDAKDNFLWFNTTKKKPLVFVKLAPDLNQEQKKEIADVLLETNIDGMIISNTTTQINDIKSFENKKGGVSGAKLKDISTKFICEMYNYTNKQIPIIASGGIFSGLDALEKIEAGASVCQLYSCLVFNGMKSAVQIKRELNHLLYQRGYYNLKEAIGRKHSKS
Chain of P. vivax DHODH (A5K1N1 entry or part of it): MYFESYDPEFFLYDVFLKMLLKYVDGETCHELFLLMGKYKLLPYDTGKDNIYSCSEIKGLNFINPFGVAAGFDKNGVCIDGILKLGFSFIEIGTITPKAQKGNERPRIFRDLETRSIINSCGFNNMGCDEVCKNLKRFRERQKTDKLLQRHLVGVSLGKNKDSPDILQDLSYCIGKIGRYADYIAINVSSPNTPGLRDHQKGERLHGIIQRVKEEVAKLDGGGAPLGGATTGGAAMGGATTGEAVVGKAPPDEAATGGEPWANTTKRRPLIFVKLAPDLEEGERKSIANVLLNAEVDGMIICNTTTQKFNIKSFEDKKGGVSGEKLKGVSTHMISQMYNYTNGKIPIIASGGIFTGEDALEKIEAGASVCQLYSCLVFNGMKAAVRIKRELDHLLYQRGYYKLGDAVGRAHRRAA

SMILES	EC50 (P. falciparum 3D7)	IC50 (P. vivax DHODH)	IC50 (Human DHODH)	IC50 (P. falciparum DHODH)
CCn1ccc2c([C@](C)(O)c3ccc(C(F)(F)F)c(Cl)c3)n(C)nc2c1=O (single isomer, unassigned) [1-46]	0.2 nM	5.8 nM	41 µM	10 nM
CCn1ccc2c([C@](O)(c3ccc(C(F)(F)F)nc3)C(C)C)n(C)nc2c1=O (single isomer, unassigned) [1-48]	18 nM	44 nM	> 100 µM	81 nM
CCn1ccc2c([C@@](O)(CC)c3ccc(C(F)(F)F)nc3)n(C)nc2c1=O (single isomer, unassigned) [1-50]	1.5 nM	27 nM	46 µM	54 nM
CC[C@@](O)(c1cnc(C(F)(F)F)c(Cl)c1)c1c2cnn(C3CC3)c(=O)c2nn1C1CC1 (single isomer, unassigned) [2-1]	12 nM	10 nM	2.3 µM	29 nM
CCn1nc2c(=O)n(C3CC3)ncc2c1[C@@](O)(CC)c1cnc(C(F)(F)F)c(Cl)c1 (single isomer, unassigned) [2-3]	9.9 nM	11 nM	2.7 µM	29 nM
CC[C@@](O)(c1ccc(C(F)(F)F)c(C#N)c1)c1c2cnn(C3CC3)c(=O)c2nn1C (single isomer, unassigned) [2-5]	1.3 nM	19 nM	4.8 µM	19 nM
Cn1nc2c(=O)n(C3CC3)ncc2c1[C@](O)(c1ccc(C(F)(F)F)c(C#N)c1)C1CC1 (single isomer, unassigned) [2-7]	4.2 nM	17 nM	> 30 µM	23 nM
Cn1nc2c(=O)n(C3CC3)ncc2c1[C@](O)(c1ccc(C(F)(F)F)c(Cl)c1)C1CC1 (single isomer, unassigned) [2-11]	1.9 nM	9.9 nM	> 30 µM	9.6 nM
CC[C@@](O)(c1ccc(C(F)(F)F)c(Cl)c1)c1c2cnn(C3CC3)c(=O)c2nn1C (single isomer, unassigned) [2-15]	0.32 nM	9.8 nM	1.7 µM	6.2 nM
CC[C@@](O)(c1ccc(F)c(Cl)c1)c1c2cnn(C3CC3)c(=O)c2nn1C (single isomer, unassigned) [2-17]	1.7 nM	9.5 nM	2.5 µM	8.4 nM
CCn1ncc2c([C@@](O)(CC)c3ccc(C(F)(F)F)c(Cl)c3)n(C)nc2c1=O (single isomer, unassigned) [2-19]	0.35 nM	2.9 nM	11 µM	6.9 nM
Cn1nc2c(=O)n(C3CC3)cnc2c1[C@](C)(O)c1cnc(C(F)(F)F)c(Cl)c1 (single isomer, unassigned) [3-1]	2.2 nM	7.9 nM	> 30 µM	21 nM
Cn1nc2c(=O)n(C3CC3)cnc2c1[C@](O)(c1cnc(C(F)(F)F)c(Cl)c1)C1CC1 (single isomer, unassigned) [3-3]	4 nM	8.3 nM	> 30 µM	22 nM
CC[C@@](O)(c1ccc(C(F)(F)F)nc1)c1c2ncn(C3CC3)c(=O)c2nn1C (single isomer, unassigned) [3-7]	1.6 nM	55 nM	14 µM	27 nM
Cn1nc2c(=O)n(C3CC3)cnc2c1[C@](O)(c1ccc(C(F)(F)F)nc1)C1CC1 (single isomer, unassigned) [3-9]	12 nM	59 nM	> 30 µM	48 nM
CCn1cnc2c([C@](C)(O)c3ccc(C(F)(F)F)c(C#N)c3)n(C)nc2c1=O (single isomer, unassigned) [3-11]	0.52 nM	9.4 nM	> 100 µM	32 nM
Cn1nc2c(=O)n(C3CC3)ccc2c1[C@](N)(c1cnc(C(F)(F)F)c(Cl)c1)C(F)(F)F (single isomer, unassigned) [4-1]	2.6 nM	13 nM	> 30 µM	21 nM
Cn1nc2c(=O)n(C3CC3)ccc2c1[C@](C)(N)c1ccc(C(F)(F)F)c(Cl)c1 (single isomer, unassigned) [4-4]	0.61 nM	9 nM	15 µM	12 nM
CC[C@@](N)(c1ccc(C(F)(F)F)c(F)c1)c1c2ccn(C3CC3)c(=O)c2nn1C (single isomer, unassigned) [4-5]	10 nM	7 nM	1.3 µM	16 nM
CC[C@@](N)(c1ccc(C(F)(F)F)c(Cl)c1)c1c2ccn(C3CC3)c(=O)c2nn1C (single isomer, unassigned) [4-8]	1.1 nM	6.2 nM	1 µM	9.3 nM
CC[C@@](N)(c1cnc(C(F)(F)F)c(Cl)c1)c1c2ccn(C3CC3)c(=O)c2nn1C (single isomer, unassigned) [4-11]	2.6 nM	41 nM	13 µM	42 nM
CCn1cc(C)c2c([C@H](N)c3ccc(C(F)(F)F)c(C#N)c3)n(C)nc2c1=O (single isomer, unassigned) [4-14]	16 nM	39 nM	> 100 µM	83 nM
Cn1nc2c(=O)n(C3CC3)ncc2c1[C@](N)(c1ccc(C(F)(F)F)c(Cl)c1)C1CC1 (single isomer, unassigned) [4-16]	7.4 nM	7.8 nM	16 µM	17 nM
Cn1nc2c(=O)n(C3CC3)cnc2c1[C@](C)(N)c1ccc(C(F)(F)F)c(Cl)c1 (single isomer, unassigned) [4-20]	0.44 nM	8.3 nM	20 µM	8.2 nM
CC[C@@](N)(c1ccc(F)c(Cl)c1)c1c2ncn(C3CC3)c(=O)c2nn1C (single isomer, unassigned) [4-22]	4.1 nM	20 nM	4.6 µM	23 nM
Cn1nc2c(=O)n(C3CC3)cnc2c1[C@](N)(c1ccc(C(F)(F)F)c(Cl)c1)C1CC1 (single isomer, unassigned) [4-24]	2.1 nM	8.7 nM	3.2 µM	11 nM
CC[C@@](N)(c1ccc(C(F)(F)F)c(Cl)c1)c1c2ncn(C3CC3)c(=O)c2nn1C (single isomer, unassigned) [4-26]	0.91 nM	5.2 nM	1.4 µM	9.5 nM
CC[C@@](N)(c1cnc(C(F)(F)F)c(Cl)c1)c1c2ncn(C3CC3)c(=O)c2nn1C (single isomer, unassigned) [4-27]	6.5 nM	40 nM	> 30 µM	47 nM
Cn1nc2c(=O)n(C3CC3)cnc2c1[C@](O)(c1cnc(C(F)(F)F)c(Cl)c1)C(F)(F)F (single isomer, unassigned) [5-3]	1.7 nM	28 nM	> 30 µM	18 nM
Cn1nc2c(=O)n(C3CC3)ccc2c1[C@](O)(c1ccc(F)c(Cl)c1)C(F)(F)F (single isomer, unassigned) [5-9]	0.52 nM	9.8 nM	9.2 µM	14 nM
